Patent US20140296288A1, “IMINO-SUGAR C-GLYCOSIDES, PREPARATION AND USE THEREOF” (UNIVERSITE PIERRE ET MARIE CURIE (PARIS 6), priority 2011, published 2014)
pIC50: −log10 of the molar value. Like-named read-outs stand apart in the source and are kept apart here.

What was measured:
β-glucosidase [1] = assay: In vitro glycosidase inhibition, β-glucosidase (almond); assay type: biochemical
Procedure: (§1) All glycosidases and p-nitrophenyl glycosides were purchased from Sigma-Aldrich Co. The enzyme assays were performed according to the methods described in Kato, A.; Miyauchi, S.; Kato, N.; Nash, R. J.; Yoshimura, Y.; Nakagome, I.; Hirono, S.; Takahata, H.; Adachi, I. Bioorg. Med. Chem. 19, 3558-3568, 2011. The activities were determined using an appropriate p-nitrophenyl glycoside as substrate at the optimum pH of each enzyme. The reaction mixture contained 2 mM of the substrate and the appropriate amount of enzyme. The reaction was stopped by adding 2 mL of 400 mM Na2CO3. The released p-nitrophenol was measured spectrometrically at 400 nm.

[2] = molecular target: β-N-acetyl hexosaminidase; assay: In vitro glycosidase inhibition, β-N-acetyl hexosaminidase (bovine kidney); assay type: biochemical
Procedure: as §1

α-mannosidase = molecular target: T1, α-mannosidase (Canavalia ensiformis, UniProt C0HJB3); assay: In vitro glycosidase inhibition, α-mannosidase (jack beans); assay type: biochemical
T1 construct: purchased Sigma-Aldrich Co
T1 sequence (C0HJB3 1-981): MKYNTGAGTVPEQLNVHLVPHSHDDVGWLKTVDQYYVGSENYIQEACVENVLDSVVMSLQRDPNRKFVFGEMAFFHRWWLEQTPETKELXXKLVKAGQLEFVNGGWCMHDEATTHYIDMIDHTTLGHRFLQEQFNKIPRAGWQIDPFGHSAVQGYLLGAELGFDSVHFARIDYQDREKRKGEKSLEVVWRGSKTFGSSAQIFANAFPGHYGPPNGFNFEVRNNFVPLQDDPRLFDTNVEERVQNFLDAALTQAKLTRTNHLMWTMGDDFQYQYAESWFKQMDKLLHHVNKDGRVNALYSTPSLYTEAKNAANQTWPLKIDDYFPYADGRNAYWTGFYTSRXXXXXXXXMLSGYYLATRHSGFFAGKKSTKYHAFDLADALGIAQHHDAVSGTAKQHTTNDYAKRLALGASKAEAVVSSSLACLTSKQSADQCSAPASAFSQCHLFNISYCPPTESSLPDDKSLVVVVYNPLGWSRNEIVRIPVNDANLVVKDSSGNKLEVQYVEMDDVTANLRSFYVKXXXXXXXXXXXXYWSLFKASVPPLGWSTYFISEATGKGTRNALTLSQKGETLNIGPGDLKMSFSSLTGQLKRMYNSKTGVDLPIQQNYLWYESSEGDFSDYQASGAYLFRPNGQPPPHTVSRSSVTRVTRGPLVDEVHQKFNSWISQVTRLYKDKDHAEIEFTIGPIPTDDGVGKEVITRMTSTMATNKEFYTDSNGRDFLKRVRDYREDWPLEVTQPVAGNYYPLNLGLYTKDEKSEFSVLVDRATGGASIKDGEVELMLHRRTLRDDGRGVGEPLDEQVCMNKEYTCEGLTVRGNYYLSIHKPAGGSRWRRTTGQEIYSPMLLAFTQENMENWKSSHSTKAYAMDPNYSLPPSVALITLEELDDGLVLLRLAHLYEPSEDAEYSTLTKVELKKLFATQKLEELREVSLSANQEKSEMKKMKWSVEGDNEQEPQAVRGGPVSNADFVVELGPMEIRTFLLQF
Procedure: as §1

rat intestinal maltase = assay: In vitro glycosidase inhibition, α-glucosidase (rat intestinal maltase); assay type: biochemical
Procedure: as §1

α-galactosidase = molecular target: T2, α-galactosidase (Coffea arabica, UniProt Q42656); assay: In vitro glycosidase inhibition, α-galactosidase (coffee beans); assay type: biochemical
T2 construct: purchased Sigma-Aldrich Co
Procedure: as §1

[3] = test system: β-N-acetyl hexosaminidase; assay: In vitro glycosidase inhibition, β-N-acetyl hexosaminidase (human placenta); assay type: biochemical; conditions: for selectivity of inhibitory activity towards β-N-acetyl hexosaminidase: versus the other glycosidases of Table 1; for pIC50: β-N-acetyl hexosaminidase, human placenta
Procedure: as §1

α-glucosidase [4] = molecular target: T3, α-glucosidase (Saccharomyces cerevisiae, UniProt P53341); assay: In vitro glycosidase inhibition, α-glucosidase (yeast); assay type: biochemical
T3 construct: purchased Sigma-Aldrich Co
Procedure: as §1

β-mannosidase = assay: In vitro glycosidase inhibition, β-mannosidase (snail); assay type: biochemical
Procedure: as §1

[5] = molecular target: T4, α-N-acetyl galactosaminidase (Gallus gallus, UniProt Q90744); assay: In vitro glycosidase inhibition, α-N-acetyl galactosaminidase (chicken liver); assay type: biochemical
T4 construct: purchased Sigma-Aldrich Co; host or cells: chicken liver
T4 sequence (Q90744 1-405): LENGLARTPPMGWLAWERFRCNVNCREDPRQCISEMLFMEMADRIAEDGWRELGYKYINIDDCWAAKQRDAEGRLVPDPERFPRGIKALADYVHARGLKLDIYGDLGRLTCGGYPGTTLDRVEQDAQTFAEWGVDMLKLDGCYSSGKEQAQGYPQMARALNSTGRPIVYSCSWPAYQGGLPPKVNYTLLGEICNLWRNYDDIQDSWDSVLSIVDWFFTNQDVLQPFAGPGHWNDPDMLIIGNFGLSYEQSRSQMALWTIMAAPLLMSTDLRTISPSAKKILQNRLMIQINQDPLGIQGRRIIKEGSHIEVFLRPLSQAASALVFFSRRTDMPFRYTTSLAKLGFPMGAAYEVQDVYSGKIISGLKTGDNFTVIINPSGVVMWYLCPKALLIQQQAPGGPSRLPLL
Procedure: as §1

β-galactosidase = assay: In vitro glycosidase inhibition, β-galactosidase (bovine liver); assay type: biochemical
Procedure: as §1

β-glucosidase [6] = assay: In vitro glycosidase inhibition, β-glucosidase (bovine liver); assay type: biochemical
Procedure: as §1

α-glucosidase [7] = molecular target: T5, α-glucosidase (Oryza sativa subsp. japonica, UniProt Q653V7); assay: In vitro glycosidase inhibition, α-glucosidase (rice); assay type: biochemical
T5 construct: purchased Sigma-Aldrich Co
Procedure: as §1

[8] = test system: α-N-acetylglucosaminidase (NAGLU); assay: Enzyme activation assay, MPS IIIB fibroblasts GM01426; assay type: cell-based, human; conditions: 3 days, 0-10 μM
Procedure: (§2) Compounds (1) and (B) (compound (B) is described in A. Vasella, Helvetica Chimica Acta, 1998, 865) were tested in 3 Sanfillipo patient-derived fibroblast cell lines, named as MPS IIIB fibroblast cells lines below.
(§3) MPS IIIB fibroblasts (GM01426, GM02931 and GM00737) were cultured in the presence of various concentrations of compounds (1) and (B) (0-10 μM) for 3 days before α-N-acetylglucosaminidase (NAGLU) activity was measured in cell homogenates using 4-methylumbelliferyl-α-N-acetylglucosamine (4-MU-α-GlcNAc) as substrate. Cells were washed twice in phosphate buffered saline, homogenised in water using a small dounce homogeniser, centrifuged at 800 g for 5 min and the supernatant taken for protein and enzyme activity. Protein concentration was determined using the BCA assay (Pierce, UK) according to manufacturer's instructions. An aliquot, (5 μl) of homogenate was added to a well of a 96-well plate containing 10 μl 2 mM 4-MU substrate (in water) and 5 μl 0.2 M sodium acetate buffer, pH 4.3. Following incubation for 3-4 h at 37° C. in a humidified incubator, the reaction was stopped by adding 300 μl 0.5 M glycine/NaOH, pH 10.3 and the fluorescence measured at 460 nm using an excitation wavelength of 350 nm, em 460 nm. Enzyme activation is defined as the fold increase in fluorescence due to enzyme activity (FU/μg protein) in treated cells compared to untreated cells. […]

[9] = test system: α-N-acetylglucosaminidase (NAGLU); assay: Enzyme activation assay, MPS IIIB fibroblasts GM02931; assay type: cell-based, human; conditions: 3 days, 0-10 μM
Procedure: as §2, §3

[10] = test system: α-N-acetylglucosaminidase (NAGLU); assay: Enzyme activation assay, MPS IIIB fibroblasts GM00737; assay type: cell-based, human; conditions: 3 days, 0-10 μM
Procedure: as §2, §3

[11] = 1000 μM, read-out: % of inhibition at 1000 μM
[12] = read-out: % of inhibition at 1000 μM

T5 sequence (Q653V7 34-885): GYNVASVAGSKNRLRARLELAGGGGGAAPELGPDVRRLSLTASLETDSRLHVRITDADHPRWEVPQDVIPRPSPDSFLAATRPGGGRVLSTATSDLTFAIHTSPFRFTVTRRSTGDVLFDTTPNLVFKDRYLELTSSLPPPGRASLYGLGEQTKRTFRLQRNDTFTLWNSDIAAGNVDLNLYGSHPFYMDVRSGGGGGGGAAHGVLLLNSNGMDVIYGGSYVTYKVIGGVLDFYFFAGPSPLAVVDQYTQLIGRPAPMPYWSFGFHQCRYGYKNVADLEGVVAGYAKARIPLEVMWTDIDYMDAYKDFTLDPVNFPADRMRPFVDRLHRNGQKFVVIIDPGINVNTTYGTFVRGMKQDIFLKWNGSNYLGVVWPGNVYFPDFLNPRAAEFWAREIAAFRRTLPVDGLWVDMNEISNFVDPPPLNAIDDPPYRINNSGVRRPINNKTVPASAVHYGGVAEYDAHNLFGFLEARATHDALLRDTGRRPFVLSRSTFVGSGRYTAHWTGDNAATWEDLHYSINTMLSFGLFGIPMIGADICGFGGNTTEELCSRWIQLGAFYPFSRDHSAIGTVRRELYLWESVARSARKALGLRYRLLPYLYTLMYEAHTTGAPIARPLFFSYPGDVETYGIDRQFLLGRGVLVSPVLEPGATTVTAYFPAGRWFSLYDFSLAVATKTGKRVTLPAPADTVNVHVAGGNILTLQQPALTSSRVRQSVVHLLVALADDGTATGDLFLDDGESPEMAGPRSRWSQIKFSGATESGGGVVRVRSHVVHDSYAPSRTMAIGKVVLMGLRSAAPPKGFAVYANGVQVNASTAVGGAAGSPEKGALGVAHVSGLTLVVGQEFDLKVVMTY
T2 sequence (Q42656 16-378): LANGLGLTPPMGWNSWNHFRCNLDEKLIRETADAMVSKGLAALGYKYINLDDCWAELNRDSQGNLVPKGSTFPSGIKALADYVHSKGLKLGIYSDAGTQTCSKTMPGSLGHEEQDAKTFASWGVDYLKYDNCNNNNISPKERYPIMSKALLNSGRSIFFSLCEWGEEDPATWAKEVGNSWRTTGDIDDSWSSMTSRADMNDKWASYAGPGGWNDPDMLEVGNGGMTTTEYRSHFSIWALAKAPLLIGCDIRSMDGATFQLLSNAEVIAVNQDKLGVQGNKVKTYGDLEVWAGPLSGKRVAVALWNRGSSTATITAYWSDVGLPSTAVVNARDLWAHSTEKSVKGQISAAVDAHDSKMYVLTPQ
T3 sequence (P53341 whole entry): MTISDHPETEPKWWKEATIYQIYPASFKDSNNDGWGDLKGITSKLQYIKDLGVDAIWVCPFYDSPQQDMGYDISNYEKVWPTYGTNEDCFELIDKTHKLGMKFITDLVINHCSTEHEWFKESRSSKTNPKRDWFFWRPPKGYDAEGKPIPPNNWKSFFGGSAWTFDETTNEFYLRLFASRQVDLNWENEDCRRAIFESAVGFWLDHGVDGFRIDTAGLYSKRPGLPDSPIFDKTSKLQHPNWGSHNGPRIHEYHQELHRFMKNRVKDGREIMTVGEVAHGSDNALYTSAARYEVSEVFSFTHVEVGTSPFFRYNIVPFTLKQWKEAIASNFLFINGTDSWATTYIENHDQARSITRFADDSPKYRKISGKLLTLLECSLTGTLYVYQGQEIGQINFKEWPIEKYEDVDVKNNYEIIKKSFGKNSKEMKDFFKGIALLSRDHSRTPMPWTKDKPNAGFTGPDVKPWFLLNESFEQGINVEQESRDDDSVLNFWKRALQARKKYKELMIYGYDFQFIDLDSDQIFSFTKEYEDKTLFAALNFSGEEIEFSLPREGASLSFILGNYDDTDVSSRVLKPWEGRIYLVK

| Molecule | IC50 (β-glucosidase [1]) | % of inhibition at 1000 μM (β-glucosidase [1]) | pIC50 [2] | inhibition at 1000 µM (α-mannosidase; [11]) | inhibition at 1000 µM (α-mannosidase; read-out: IC50) | IC50 (rat intestinal maltase) | % of inhibition at 1000 μM (rat intestinal maltase) | inhibition at 1000 µM (α-galactosidase; [11]) | inhibition at 1000 µM (α-galactosidase; read-out: IC50) | selectivity of inhibitory activity towards β-N-acetyl hexosaminidase [3] | pIC50 [3] | inhibition at 1000 µM (α-glucosidase [4]; [12]) | IC50 (β-mannosidase) | % of inhibition at 1000 μM (β-mannosidase) | inhibition at 1000 µM [5, 11] | inhibition at 1000 µM ([5]; read-out: IC50) | % of inhibition at 1000 μM (β-galactosidase) | IC50 (β-glucosidase [6]) | % of inhibition at 1000 μM (β-glucosidase [6]) | inhibition at 1000 µM (α-glucosidase [7]; [11]) | also measured |
| --- | --- | --- | --- | --- | --- | --- | --- | --- | --- | --- | --- | --- | --- | --- | --- | --- | --- | --- | --- | --- | --- |
| CC(=O)N[C@@H]1[C@@H](O)[C@H](O)[C@@H](CO)N[C@H]1CO [1′, N-((2R,3R,4R,5S,6R)-3,4-dihydroxy-2,6-bis(hydroxymethyl)piperidin-5-yl)acetamide] | NI (No Inhibition (less than 50% inhibition at 1000 μM)) | 18.3% | 4.19 | 0% | < 50% | NI (No Inhibition (less than 50% inhibition at 1000 μM)) | 1.3% | 13.1% | < 50% | selective inhibitory activity | 4.14 | 15.4% | NI (No Inhibition (less than 50% inhibition at 1000 μM)) | 0% | 42.7% | < 50% | 5.7% | NI (No Inhibition (less than 50% inhibition at 1000 μM)) | 15.5% | 15.9% | inhibition at 1000 µM (α-glucosidase [4]; α-glucosidase, yeast, read-out: IC50): < 50%; inhibition at 1000 µM (α-glucosidase [7]; read-out: IC50): < 50% |
| CC(=O)N[C@@H]1[C@@H](O)[C@H](O)[C@@H](CO)N[C@@H]1CO [Compound 1, N-((2R,3R,4R,5S,6S)-3,4-dihydroxy-2,6-bis(hydroxymethyl)piperidin-5-yl)acetamide] | NI (No Inhibition (less than 50% inhibition at 1000 μM)) | 5.0% | 4.17 | 2.3% | < 50% | NI (No Inhibition (less than 50% inhibition at 1000 μM)) | 26.7% | 19.7% | < 50% | selective inhibitory activity | 4.25 | 18.5% | NI (No Inhibition (less than 50% inhibition at 1000 μM)) | 1.9% | 42.4% | < 50% | 5.0% | NI (No Inhibition (less than 50% inhibition at 1000 μM)) | 4.4% | 32.3% | inhibition at 1000 µM (α-glucosidase [4]; read-out: IC50): < 50%; inhibition at 1000 µM (α-glucosidase [7]; read-out: IC50): < 50% |
| N-((2R,3R,4R,5S,6S)-3,4-dihydroxy-2,6-bis(hydroxymethyl)piperidin-5-yl)acetamide [Compound 1] |  |  |  |  |  |  |  |  |  |  |  |  |  |  |  |  |  |  |  |  | NAGLU enzyme activation, result in words [8]: concentration dependent increase up to 1 μM; NAGLU enzyme activation (fold increase in FU/μg protein vs untreated cells) ([8]; best activation seen): 2.4 fold; NAGLU enzyme activation, result in words [9]: activation at lower concentrations; NAGLU enzyme activation, result in words [10]: activation at lower concentrations |
